# ChEMBL document CHEMBL5104149, “Monoterpene substituted thiazolidin-4-ones as novel TDP1 inhibitors: Synthesis, biological evaluation and docking” (Bioorg Med Chem Lett, 2022)
# Activity calls are given as the source filed them. No cut-off for these calls is given here.
# Legend:
# [1] = molecular target: Tyrosyl-DNA phosphodiesterase 1 (Homo sapiens, UniProt Q9NUW8); assay: Inhibition of recombinant human TDP1 measured by real-time oligonucleotide biosensor assay
# [2] = Cytotoxicity against human HEK293-A cells; type: toxicity, cell-based
# [3] = tested on: HeLa; assay: Synergistic cytotoxicity against human HeLa cells assessed as combination index at 5 uM in presence of 5 uM topotecan; type: functional
# [4] = Cytotoxicity against human HeLa cells; type: toxicity, cell-based
# [5] = tested on: HeLa; assay: Cytotoxicity against human HeLa cells at 10 uM in presence of 2 to 16 uM topotecan; type: functional, cell-based
# [6] = tested on: HeLa; assay: Synergistic cytotoxicity against human HeLa cells assessed as combination index at 20 uM in presence of 5 uM topotecan; type: functional
# Chain of Tyrosyl-DNA phosphodiesterase 1 (Q9NUW8 whole entry): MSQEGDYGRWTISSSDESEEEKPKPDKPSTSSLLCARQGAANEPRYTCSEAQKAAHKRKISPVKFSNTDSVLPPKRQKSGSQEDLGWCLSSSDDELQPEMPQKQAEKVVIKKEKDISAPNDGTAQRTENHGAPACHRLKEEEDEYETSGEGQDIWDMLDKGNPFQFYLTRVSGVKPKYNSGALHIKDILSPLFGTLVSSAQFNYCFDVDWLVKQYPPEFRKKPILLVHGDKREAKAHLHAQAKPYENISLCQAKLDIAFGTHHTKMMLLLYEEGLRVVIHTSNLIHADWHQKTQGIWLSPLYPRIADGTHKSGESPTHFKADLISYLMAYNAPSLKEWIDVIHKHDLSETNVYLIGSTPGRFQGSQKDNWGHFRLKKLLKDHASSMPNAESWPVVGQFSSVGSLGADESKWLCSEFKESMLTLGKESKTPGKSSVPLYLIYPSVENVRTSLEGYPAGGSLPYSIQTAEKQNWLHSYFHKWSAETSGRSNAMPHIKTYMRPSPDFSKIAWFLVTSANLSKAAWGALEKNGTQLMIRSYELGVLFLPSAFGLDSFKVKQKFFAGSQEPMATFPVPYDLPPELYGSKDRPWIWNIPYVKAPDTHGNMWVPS
IC50 [1] [µM],SMILES,CC50 [2] [µM],CI [3],CC50 [4] [µM],Activity [5],CI [6]
> 100,O=C1CSC(c2ccccc2)N1Cc1ccccc1 (stereo not drawn),,,,,
0.016,CC(=O)C1=C(O)C=C2Oc3c(-c4csc(N/N=C/CC(C)CCC=C(C)C)n4)c(O)c(C)c(O)c3[C@@]2(C)C1=O (stereo partly drawn),,,,,
12,COc1cnc2c(c1)C(=O)c1c-2n(CCCNC2=NCCS2)c(=O)c2cc([N+](=O)[O-])ccc12,,,,,
> 100,CC1=CC[C@@H](CC2SCC(=O)N2Cc2ccccc2)C1(C)C (stereo partly drawn),,,,,
> 100,COc1ccc(C2SCC(=O)N2Cc2ccccc2)cc1 (stereo not drawn),,,,,
2.1,CC1(C)C2CC=C(CCOc3ccc(C4SCC(=O)N4Cc4ccccc4)cc3)C1C2 (stereo not drawn),> 100,0.32,> 100,Active,0.21
2.9,CC(C)=CCC/C(C)=C/COc1ccc(C2SCC(=O)N2Cc2ccccc2)cc1 (stereo not drawn),> 100,,> 100,Active,0.13
> 100,CC(C)CCCC(C)CC1SCC(=O)N1Cc1ccccc1 (stereo not drawn),,,,,
> 100,CC(C)=CCCC(C)CCOc1ccc(C2SCC(=O)N2Cc2ccccc2)cc1 (stereo not drawn),,,,,
1.6,CC1(C)C2CC=C(COc3ccc(C4SCC(=O)N4Cc4ccccc4)cc3)C1C2 (stereo not drawn),51,,74,Active,0.21
> 100,CC1(C)C2CC=C(CC3SCC(=O)N3Cc3ccccc3)C1C2 (stereo not drawn),,,,,
1.2,CC(C)CCCC(C)CCOc1ccc(C2SCC(=O)N2Cc2ccccc2)cc1 (stereo not drawn),> 100,0.51,66,Active,0.29
1.2,CC1=CC[C@@H](CCOc2ccc(C3SCC(=O)N3Cc3ccccc3)cc2)C1(C)C (stereo partly drawn),90,0.25,79,Active,0.16
> 100,CC(C)=CCCC(C)CC1SCC(=O)N1Cc1ccccc1 (stereo not drawn),,,,,
> 100,CC1(C)C2CC=C(C3SCC(=O)N3Cc3ccccc3)C1C2 (stereo not drawn),,,,,
